Data on two molecules can be found in patent publication US5948755A, “Cyclosporin compound, its preparation and the pharmaceutical compositions which contain it” (Rhone-Poulenc Rorer S.A., priority 1996, dated 1999).

For one data set, the system named is retrovirus (HIV). Conditions: read-out: average for the active concentrations (IC50); technique of Pauwells et al.; first of the two values printed.
The conditions of data set [1]: at concentrations displaying anti-retrovirus activity.
The conditions of data set [2]: EP 484281 and Eur. J. Immunol., 17, 1359 (1987); cited from earlier work.

Consider `C/C=C/C[C@@H](C)[C@@H](O)[C@H]1C(=O)N[C@@H](CC)C(=O)N(C)[C@H](SC)C(=O)N(C)[C@@H](CC(C)(C)O)C(=O)N[C@@H](C(C)C)C(=O)N(C)[C@@H](CC(C)C)C(=O)N[C@@H](C)C(=O)N[C@H](C)C(=O)N(C)[C@@H](CC(C)C)C(=O)N(C)[C@@H](CC(C)C)C(=O)N(C)[C@@H](C(C)C)C(=O)N1C` [formula (I), [(R)-Methylthio-Sar]^3-[4'-hydroxy-MeLeu]^4-cyclosporin A], for which the IC50 in the data set with retrovirus (HIV) was 0.07 µM. In addition, the “cytotoxic or cytostatic effect” value in data set [1] was “devoid of any cytotoxic or cytostatic effect”.
Turning to [4'-hydroxy-MeLeul]^4 -cyclosporin, in data set [2], the immunosuppressing nature result is listed as “are not immunosuppressants”.
